From patent publication US6737383B1, “Herbicidal oxadiazolidines” (priority 1999, dated 2004)

Assays:
bedstraw = assay: Test B pre/postemergence bedstraw; type: in vivo, Galium aparine; conditions: Postemergence
Method in brief: (§1)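 Response is a visual 0-to-10 score relative to untreated plants, where 0 means no effect and 10 means complete control, taken twelve to sixteen days after application. Treatments went onto soil at planting and onto foliage of 1- to 4-leaf plants, using a surfactant-containing non-phytotoxic solvent.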

surinam grass = assay: Test B pre/postemergence surinam grass; type: in vivo, Brachiaria decumbens
Method in brief: as §1

cocklebur = assay: Test B pre/postemergence cocklebur; type: in vivo, Xanthium strumarium
Method in brief: as §1

corn = assay: Test B pre/postemergence corn; type: in vivo, Zea mays
Method in brief: as §1

giant foxtail = assay: Test B pre/postemergence giant foxtail; type: in vivo, Setaria faberii
Method in brief: as §1

pigweed = assay: Test B pre/postemergence pigweed; type: in vivo, Amaranthus retroflexus
Method in brief: as §1

rape = assay: Test B pre/postemergence rape; type: in vivo, Brassica napus; conditions: for Plant response rating, Rape: scale of 0 to 10 where 0 is no effect and 10 is complete control
Method in brief: as §1

soybean = assay: Test B pre/postemergence soybean; type: in vivo, Glycine max; conditions: for Plant response rating, Soybean: scale of 0 to 10 where 0 is no effect and 10 is complete control
Method in brief: as §1

sugar beet = assay: Test B pre/postemergence sugar beet; type: in vivo, Beta vulgaris; conditions: for Plant response rating, Sugarbeets: scale of 0 to 10 where 0 is no effect and 10 is complete control
Method in brief: as §1

velvetleaf = assay: Test B pre/postemergence velvetleaf; type: in vivo, Abutilon theophrasti; conditions: for Plant response rating, Velvetleaf: scale of 0 to 10 where 0 is no effect and 10 is complete control
Method in brief: as §1

wheat = assay: Test B pre/postemergence wheat; type: in vivo, Triticum aestivum; conditions: for Plant response rating, Wheat: scale of 0 to 10 where 0 is no effect and 10 is complete control
Method in brief: as §1

wild oat = assay: Test B pre/postemergence wild oat; type: in vivo, Avena fatua; conditions: for Plant response rating, Wild oats: scale of 0 to 10 where 0 is no effect and 10 is complete control
Method in brief: as §1

purple nutsedge = assay: Test B pre/postemergence purple nutsedge; type: in vivo, Cyperus rotundus; conditions: for Plant response rating, Nutsedge: scale of 0 to 10 where 0 is no effect and 10 is complete control
Method in brief: as §1

rice = assay: Test B flood test rice; type: in vivo, Oryza sativa
Method in brief: (§2)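 Plants were grown to the 2-leaf stage before treatment with test chemical, then held in a greenhouse for twelve to sixteen days. Injury was visually rated against untreated controls on a 0–10 scale, where 0 is no effect and 10 is complete control.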

smallflower flatsedge = assay: Test B flood test smallflower flatsedge; type: in vivo, Cyperus difformis
Method in brief: as §2

duck salad = assay: Test B flood test duck salad; type: in vivo, Heteranthera limosa
Method in brief: as §2

[1] = Postemergence, Rate 500 g/ha, scale of 0 to 10 where 0 is no effect and 10 is complete control
[2] = Preemergence, Rate 62 g/ha, scale of 0 to 10 where 0 is no effect and 10 is complete control
[3] = Preemergence, Rate 125 g/ha, scale of 0 to 10 where 0 is no effect and 10 is complete control
[4] = Preemergence, Rate 250 g/ha, scale 0 to 10, 0 is no effect, 10 is complete control
[5] = Preemergence, Rate 500 g/ha, scale 0 to 10, 0 is no effect, 10 is complete control
[6] = Rate 62 g/ha, Postemergence, scale 0 to 10 (0 no effect, 10 complete control)
[7] = Rate 125 g/ha, Postemergence, scale 0 to 10, 0 is no effect, 10 is complete control
[8] = Postemergence, Rate 250 g/ha, scale 0 to 10
[9] = Rate 62 g/ha, flood test species, Pre-emergence, visual evaluation after twelve to sixteen days
[10] = Rate 125 g/ha, under heading Pre-emergence, flood test species, visual evaluation after twelve to sixteen days
[11] = Rate 250 g/ha, Pre-emergence (flood test species), scale 0 to 10, 0 is no effect, 10 is complete control
[12] = Rate 500 g/ha, Pre-emergence, flood test species, scale 0 to 10 (0 no effect, 10 complete control)

Question: `CC(C)N(C(=O)n1oc(=O)n(C(C)C(=O)N(C)C)c1=O)c1ccc(Cl)cc1` (stereo not shown) [Compound 480] was tested. Which “Bedstraw plant response rating” value (bedstraw; Rate 250 g/ha, scale 0 to 10) did it give?
Answer: 0

Question: And the “Bedstraw plant response rating” value (bedstraw; Rate 500 g/ha, scale of 0 to 10 where 0 is no effect and 10 is complete control)?
Answer: 0

Question: And the “Bedstraw plant response rating” value (bedstraw; Rate 62 g/ha, scale 0 to 10 (0 no effect, 10 complete control))?
Answer: 0

Question: And the “Bedstraw plant response rating” value (bedstraw; Rate 125 g/ha, scale 0 to 10, 0 is no effect, 10 is complete control)?
Answer: 0

Question: What about the “B. signalgrass plant response rating” value (surinam grass; Postemergence, Rate 250 g/ha, scale 0 to 10, 0 no effect, 10 complete control) of the same molecule?
Answer: 5

Question: What about the “B. signalgrass plant response rating” value (surinam grass; [1]) of the same molecule?
Answer: 6

Question: And the “Plant response rating, B. signalgrass” value (surinam grass; [2])?
Answer: 0

Question: What about the “Plant response rating, B. signalgrass” value (surinam grass; [3]) of the same molecule?
Answer: 4

Question: What about the “B. signalgrass plant response rating” value (surinam grass; [4]) of the same molecule?
Answer: 7

Question: What about the “B. signalgrass plant response rating” value (surinam grass; [5]) of the same molecule?
Answer: 9

Question: What about the “B. signalgrass plant response rating” value (surinam grass; [6]) of the same molecule?
Answer: 0

Question: What about the “B. signalgrass plant response rating” value (surinam grass; [7]) of the same molecule?
Answer: 3

Question: And the “Cocklebur plant response rating” value (cocklebur; [8])?
Answer: 0

Question: And the “Cocklebur plant response rating” value (cocklebur; [1])?
Answer: 1

Question: And the “Plant response rating, Cocklebur” value (cocklebur; [2])?
Answer: 0

Question: What about the “Plant response rating, Cocklebur” value (cocklebur; [3]) of the same molecule?
Answer: 0

Question: And the “Cocklebur plant response rating” value (cocklebur; [4])?
Answer: 0

Question: And the “Cocklebur plant response rating” value (cocklebur; [5])?
Answer: 0

Question: And the “Cocklebur plant response rating” value (cocklebur; [6])?
Answer: 0

Question: What about the “Cocklebur plant response rating” value (cocklebur; [7]) of the same molecule?
Answer: 0

Question: What about the “Corn plant response rating” value (corn; [8]) of the same molecule?
Answer: 0

Question: What about the “Corn plant response rating” value (corn; [1]) of the same molecule?
Answer: 2

Question: What about the “Plant response rating, Corn” value (corn; [2]) of the same molecule?
Answer: 0

Question: And the “Plant response rating, Corn” value (corn; [3])?
Answer: 0

Question: And the “Corn plant response rating” value (corn; [4])?
Answer: 0

Question: And the “Corn plant response rating” value (corn; [5])?
Answer: 3

Question: And the “Corn plant response rating” value (corn; [6])?
Answer: 0

Question: What about the “Corn plant response rating” value (corn; [7]) of the same molecule?
Answer: 0

Question: And the “Giant foxtail plant response rating” value (giant foxtail; [8])?
Answer: 8

Question: What about the “Giant foxtail plant response rating” value (giant foxtail; [1]) of the same molecule?
Answer: 8

Question: What about the “Plant response rating, Giant foxtail” value (giant foxtail; [2]) of the same molecule?
Answer: 10

Question: And the “Plant response rating, Giant foxtail” value (giant foxtail; [3])?
Answer: 10

Question: And the “Giant foxtail plant response rating” value (giant foxtail; [4])?
Answer: 10

Question: What about the “Giant foxtail plant response rating” value (giant foxtail; [5]) of the same molecule?
Answer: 10

Question: What about the “Giant foxtail plant response rating” value (giant foxtail; [6]) of the same molecule?
Answer: 3

Question: And the “Giant foxtail plant response rating” value (giant foxtail; [7])?
Answer: 5

Question: What about the “Redroot pigweed plant response rating” value (pigweed; [8]) of the same molecule?
Answer: 1

Question: What about the “Plant response rating, Redroot pigweed” value (pigweed; [2]) of the same molecule?
Answer: 2

Question: What about the “Redroot pigweed plant response rating” value (pigweed; [4]) of the same molecule?
Answer: 8

Question: What about the “Redroot pigweed plant response rating” value (pigweed; [5]) of the same molecule?
Answer: 9

Question: And the “Redroot pigweed plant response rating” value (pigweed; [6])?
Answer: 0

Question: What about the “Redroot pigweed plant response rating” value (pigweed; [7]) of the same molecule?
Answer: 0

Question: And the “Rape plant response rating” value (rape; [8])?
Answer: 0

Question: And the “Plant response rating, Rape” value (rape; Preemergence, Rate 62 g/ha)?
Answer: 0

Question: What about the “Plant response rating, Rape” value (rape; Preemergence, Rate 125 g/ha) of the same molecule?
Answer: 0

Question: And the “Rape plant response rating” value (rape; [4])?
Answer: 0

Question: And the “Rape plant response rating” value (rape; [5])?
Answer: 0

Question: And the “Rape plant response rating” value (rape; [6])?
Answer: 0

Question: What about the “Rape plant response rating” value (rape; [7]) of the same molecule?
Answer: 0

Question: What about the “Soybean plant response rating” value (soybean; [8]) of the same molecule?
Answer: 3

Question: What about the “Plant response rating, Soybean” value (soybean; Preemergence, Rate 62 g/ha) of the same molecule?
Answer: 0

Question: And the “Plant response rating, Soybean” value (soybean; Preemergence, Rate 125 g/ha)?
Answer: 0

Question: What about the “Soybean plant response rating” value (soybean; [4]) of the same molecule?
Answer: 0

Question: What about the “Soybean plant response rating” value (soybean; [5]) of the same molecule?
Answer: 1

Question: What about the “Soybean plant response rating” value (soybean; [6]) of the same molecule?
Answer: 2

Question: What about the “Soybean plant response rating” value (soybean; [7]) of the same molecule?
Answer: 3

Question: And the “Sugarbeets plant response rating” value (sugar beet; [8])?
Answer: 0

Question: And the “Plant response rating, Sugarbeets” value (sugar beet; Preemergence, Rate 62 g/ha)?
Answer: 0

Question: And the “Plant response rating, Sugarbeets” value (sugar beet; Preemergence, Rate 125 g/ha)?
Answer: 0

Question: What about the “Sugarbeets plant response rating” value (sugar beet; [4]) of the same molecule?
Answer: 0

Question: What about the “Sugarbeets plant response rating” value (sugar beet; [5]) of the same molecule?
Answer: 0

Question: What about the “Sugarbeets plant response rating” value (sugar beet; [6]) of the same molecule?
Answer: 0

Question: What about the “Sugarbeets plant response rating” value (sugar beet; [7]) of the same molecule?
Answer: 0

Question: What about the “Velvetleaf plant response rating” value (velvetleaf; [8]) of the same molecule?
Answer: 0

Question: What about the “Plant response rating, Velvetleaf” value (velvetleaf; Preemergence, Rate 62 g/ha) of the same molecule?
Answer: 0

Question: And the “Plant response rating, Velvetleaf” value (velvetleaf; Preemergence, Rate 125 g/ha)?
Answer: 0

Question: And the “Velvetleaf plant response rating” value (velvetleaf; [4])?
Answer: 0

Question: And the “Velvetleaf plant response rating” value (velvetleaf; [5])?
Answer: 0

Question: What about the “Velvetleaf plant response rating” value (velvetleaf; [6]) of the same molecule?
Answer: 0

Question: What about the “Velvetleaf plant response rating” value (velvetleaf; [7]) of the same molecule?
Answer: 0

Question: And the “Wheat plant response rating” value (wheat; [8])?
Answer: 0

Question: What about the “Plant response rating, Wheat” value (wheat; Preemergence, Rate 62 g/ha) of the same molecule?
Answer: 0

Question: And the “Plant response rating, Wheat” value (wheat; Preemergence, Rate 125 g/ha)?
Answer: 0

Question: And the “Wheat plant response rating” value (wheat; [4])?
Answer: 0

Question: And the “Wheat plant response rating” value (wheat; [5])?
Answer: 2

Question: What about the “Wheat plant response rating” value (wheat; [6]) of the same molecule?
Answer: 0

Question: What about the “Wheat plant response rating” value (wheat; [7]) of the same molecule?
Answer: 0

Question: What about the “Wild oats plant response rating” value (wild oat; [8]) of the same molecule?
Answer: 0

Question: What about the “Plant response rating, Wild oats” value (wild oat; Preemergence, Rate 62 g/ha) of the same molecule?
Answer: 0

Question: And the “Plant response rating, Wild oats” value (wild oat; Preemergence, Rate 125 g/ha)?
Answer: 2

Question: What about the “Wild oats plant response rating” value (wild oat; [4]) of the same molecule?
Answer: 4

Question: What about the “Wild oats plant response rating” value (wild oat; [5]) of the same molecule?
Answer: 7

Question: What about the “Wild oats plant response rating” value (wild oat; [6]) of the same molecule?
Answer: 0

Question: And the “Wild oats plant response rating” value (wild oat; [7])?
Answer: 0

Question: What about the “Nutsedge plant response rating” value (purple nutsedge; [8]) of the same molecule?
Answer: 0

Question: What about the “Plant response rating, Nutsedge” value (purple nutsedge; Preemergence, Rate 62 g/ha) of the same molecule?
Answer: 0

Question: What about the “Plant response rating, Nutsedge” value (purple nutsedge; Preemergence, Rate 125 g/ha) of the same molecule?
Answer: 0

Question: What about the “Nutsedge plant response rating” value (purple nutsedge; [4]) of the same molecule?
Answer: 0

Question: And the “Nutsedge plant response rating” value (purple nutsedge; [5])?
Answer: 0

Question: What about the “Nutsedge plant response rating” value (purple nutsedge; [6]) of the same molecule?
Answer: 0

Question: And the “Nutsedge plant response rating” value (purple nutsedge; [7])?
Answer: 0

Question: And the “Plant response rating, Rice (0 to 10 scale, 0 is no effect, 10 is complete control)” value (rice; [9])?
Answer: 0

Question: And the “Rice plant response rating (0 to 10 scale, 0 is no effect, 10 is complete control)” value (rice; [10])?
Answer: 0

Question: And the “Rice plant response rating” value (rice; [11])?
Answer: 0

Question: And the “Rice plant response rating” value (rice; [12])?
Answer: 0

Question: And the “Plant response rating, S. Flatsedge (0 to 10 scale, 0 is no effect, 10 is complete control)” value (smallflower flatsedge; [9])?
Answer: 0

Question: What about the “S. Flatsedge plant response rating (0 to 10 scale, 0 is no effect, 10 is complete control)” value (smallflower flatsedge; [10]) of the same molecule?
Answer: 0

Question: And the “S. Flatsedge plant response rating” value (smallflower flatsedge; [11])?
Answer: 0

Question: And the “S. Flatsedge plant response rating” value (smallflower flatsedge; [12])?
Answer: 0

Question: What about the “Plant response rating, Ducksalad (0 to 10 scale, 0 is no effect, 10 is complete control)” value (duck salad; [9]) of the same molecule?
Answer: 0

Question: What about the “Ducksalad plant response rating (0 to 10 scale, 0 is no effect, 10 is complete control)” value (duck salad; [10]) of the same molecule?
Answer: 0

Question: And the “Ducksalad plant response rating” value (duck salad; [11])?
Answer: 0

Question: What about the “Ducksalad plant response rating” value (duck salad; [12]) of the same molecule?
Answer: 0
